# Laboratory results as given in paper PMC7144934, “Design, Synthesis and Biological Evaluation of Phenyl Urea Derivatives as IDO1 Inhibitors” (Molecules, 2020).
# Assays:
# [1] = molecular target: T1, Recombinant human TDO (rhTDO) (Homo sapiens, UniProt P48775); test: Enzyme assay for TDO inhibition; type: biochemical; settings: 37 °C, 45 min
# T1 construct: made in house
# Procedure: Recombinant human IDO1 and TDO were expressed and purified according to the reported procedures. The assay was performed according to the literature: A standard reaction mixture (100 µL) containing 100 mM potassium phosphate buffer (pH 6.5), 40 mM ascorbic acid (neutralized with NaOH), 200 µg/mL catalase, 20 µM methylene blue and 0.05 µM rhIDO1 or rhTDO was added to the solution containing the substrate L-tryptophan and the test sample at a determined concentration. The reaction was carried out at 37 °C for 45 min and stopped by adding 20 µL of 30% (w/v) trichloroacetic acid. After heating at 65 °C for 15 min, 100 µL of 2% (w/v) p-dimethylaminobenzaldehyde in acetic acid was added to each well. The yellow pigment derived from kynurenine was measured at 492 nm using a SYNERGY-H1 microplate reader (Biotek Instruments, Inc., Winooski, VT, USA). IC50 was analyzed using the GraphPad Prism 8.0 software (GraphPad Software, San Diego, CA, USA).
# [2] = molecular target: T2, Recombinant human IDO1 (rhIDO1) (Homo sapiens, UniProt P14902); test: Enzyme assay for IDO1 inhibition; type: biochemical; settings: for IDO1 inhibitory activity (in words) / IC50: rhIDO1 enzyme assay; for IC50: 37 °C, 45 min
# T2 construct: made in house
# T2 sequence (P14902 whole entry): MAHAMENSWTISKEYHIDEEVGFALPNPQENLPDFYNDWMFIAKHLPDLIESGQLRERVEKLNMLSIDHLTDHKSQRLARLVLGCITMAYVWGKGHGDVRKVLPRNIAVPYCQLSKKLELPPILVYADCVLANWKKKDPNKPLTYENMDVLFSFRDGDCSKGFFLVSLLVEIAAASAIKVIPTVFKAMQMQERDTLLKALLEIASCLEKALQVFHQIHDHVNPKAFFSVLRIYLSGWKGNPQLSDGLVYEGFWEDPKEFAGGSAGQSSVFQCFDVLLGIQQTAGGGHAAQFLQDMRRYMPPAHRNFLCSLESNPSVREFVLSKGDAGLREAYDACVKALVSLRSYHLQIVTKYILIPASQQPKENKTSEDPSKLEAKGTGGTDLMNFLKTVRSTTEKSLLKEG
# T1 sequence (P48775 whole entry): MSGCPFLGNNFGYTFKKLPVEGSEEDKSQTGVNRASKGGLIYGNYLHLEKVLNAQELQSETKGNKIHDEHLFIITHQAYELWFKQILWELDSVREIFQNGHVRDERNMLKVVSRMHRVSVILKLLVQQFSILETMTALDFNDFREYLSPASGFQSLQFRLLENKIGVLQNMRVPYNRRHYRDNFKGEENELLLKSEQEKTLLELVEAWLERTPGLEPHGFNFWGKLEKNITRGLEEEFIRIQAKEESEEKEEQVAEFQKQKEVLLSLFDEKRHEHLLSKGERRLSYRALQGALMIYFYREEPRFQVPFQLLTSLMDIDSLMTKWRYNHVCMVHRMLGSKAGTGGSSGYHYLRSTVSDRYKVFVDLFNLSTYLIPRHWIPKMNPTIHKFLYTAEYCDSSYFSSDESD
Compound,IC50 [1] [µM],IDO1 inhibitory activity (in words) [2],IC50 [2] [µM],fold more potent than compound BMS-E30 (IDO1) ([2]; ratio of IDO1 enzyme IC50 values) [fold]
"Cc1ccc(NC(=O)Nc2cc(C(CC(=O)O)C(F)(F)F)ccc2N2CC(C)CC(C)C2)cc1 (stereo not drawn) [i2, 3-[4-(3,5-dimethylpiperidin-1-yl)-3-(3-p-tolylureido)phenyl]-4,4,4-trifluorobutyric Acid]",> 100,more potent IDO1 inhibitory activity than the unsubstituted i1,8.61,–
"COc1ccc(NC(=O)Nc2cc(C(CC(=O)O)C(F)(F)F)ccc2N2CC(C)CC(C)C2)cc1 (stereo not drawn) [i15, 3-{4-(3,5-dimethylpiperidin-1-yl)-3-[3-(4-methoxyphenyl)ureido]-phenyl}-4,4,4-trifluorobutyric Acid]",> 100,more potent IDO1 inhibitory activity than the unsubstituted i1,1.62,–
"CC1CC(C)CN(c2ccc(C(CC(=O)O)C(F)(F)F)cc2NC(=O)Nc2ccc(F)cc2F)C1 (stereo not drawn) [i16, 3-[3-[3-(2,4-difluorophenyl)ureido]-4-(3,5-dimethylpiperidin-1-yl)-phenyl]-4,4,4-trifluorobutyric Acid]",> 100,no inhibitory activities,> 100,–
"CC1CC(C)CN(c2ccc(C(CC(=O)O)C(F)(F)F)cc2NC(=O)Nc2cccc(Cl)c2)C1 (stereo not drawn) [i9, 3-[3-[3-(3-chlorophenyl)ureido]-4-(3,5-dimethylpiperidin-1-yl)-phenyl]-4,4,4-trifluorobutyric Acid]",> 100,lost all IDO1 inhibitory activity,> 100,–
"Cc1ccccc1NC(=O)Nc1cc(C(CC(=O)O)C(F)(F)F)ccc1N1CC(C)CC(C)C1 (stereo not drawn) [i6, 3-[4-(3,5-dimethylpiperidin-1-yl)-3-(3-o-tolylureido)phenyl]-4,4,4-trifluorobutyric Acid]",> 100,lost all IDO1 inhibitory activity,> 100,–
"CC1CC(C)CN(c2ccc(C(CC(=O)O)C(F)(F)F)cc2NC(=O)Cc2ccc(C#N)cc2)C1 (stereo not drawn) [j1, 3-[3-[2-(4-cyanophenyl)acetylamino]-4-(3,5-dimethylpiperidin-1-yl)-phenyl]-4,4,4-trifluorobutyric Acid]",> 100,no inhibitory activity,> 100,–
"CC1CC(C)CN(c2ccc(C(CC(=O)O)C(F)(F)F)cc2NC(=O)Nc2ccc(Br)cc2)C1 (stereo not drawn) [i19, 3-[3-[3-(4-bromophenyl)ureido]-4-(3,5-dimethylpiperidin-1-yl)-phenyl]-4,4,4-trifluorobutyric Acid]",> 100,–,4.08,–
"CC1CC(C)CN(c2ccc(C(CC(=O)O)C(F)(F)F)cc2NC(=O)Cc2ccc(C(F)(F)F)cc2)C1 (stereo not drawn) [j2, 3-{4-(3,5-dimethylpiperidin-1-yl)-3-[2-(4-trifluoromethylphenyl)-acetylamino]phenyl}-4,4,4-trifluorobutyric Acid]",> 100,no inhibitory activity,> 100,–
"CC1CC(C)CN(c2ccc(C(CC(=O)O)C(F)(F)F)cc2NC(=O)Nc2ccccc2Cl)C1 (stereo not drawn) [i8, 3-[3-[3-(2-chlorophenyl)ureido]-4-(3,5-dimethylpiperidin-1-yl)-phenyl]-4,4,4-trifluorobutyric Acid]",> 100,lost all IDO1 inhibitory activity,> 100,–
"CC1CC(C)CN(c2ccc(C(CC(=O)O)C(F)(F)F)cc2NC(=O)Nc2ccc([N+](=O)[O-])cc2)C1 (stereo not drawn) [i24, 3-{4-(3,5-dimethylpiperidin-1-yl)-3-[3-(4-nitrophenyl)ureido]phenyl}-4,4,4-trifluorobutyric Acid]",> 100,–,0.157,55
"CC1CC(C)CN(c2ccc(C(CC(=O)O)C(F)(F)F)cc2NC(=O)Nc2ccc(C(C)C)cc2)C1 (stereo not drawn) [i21, 3-{4-(3,5-dimethylpiperidin-1-yl)-3-[3-(4-isopropylphenyl)ureido]-phenyl}-4,4,4-trifluorobutyric Acid]",> 100,loss of activity,> 100,–
"CC1CC(C)CN(c2ccc(C(CC(=O)O)C(F)(F)F)cc2NC(=O)NC2CCCCC2)C1 (stereo not drawn) [i4, 3-[3-(3-cyclohexylureido)-4-(3,5-dimethylpiperidin-1-yl)phenyl]-4,4,4-trifluorobutyric Acid]",> 100,loss of inhibition,> 100,–
"CCc1ccc(NC(=O)Nc2cc(C(CC(=O)O)C(F)(F)F)ccc2N2CC(C)CC(C)C2)cc1 (stereo not drawn) [i20, 3-{4-(3,5-dimethylpiperidin-1-yl)-3-[3-(4-ethylphenyl)ureido]phenyl}-4,4,4-trifluorobutyric Acid]",> 100,–,9.98,–
"CC1CC(C)CN(c2ccc(C(CC(=O)O)C(F)(F)F)cc2NC(=O)Nc2ccc(C(F)(F)F)cc2)C1 (stereo not drawn) [i23, 3-{4-(3,5-dimethylpiperidin-1-yl)-3-[3-(4-trifluoromethylphenyl)-ureido]phenyl}-4,4,4-trifluorobutyric Acid]",> 100,–,0.415,–
"CC1CC(C)CN(c2ccc(C(CC(=O)O)C(F)(F)F)cc2NC(=O)Nc2ccc(OC(F)(F)F)cc2)C1 (stereo not drawn) [i22, 3-{4-(3,5-dimethylpiperidin-1-yl)-3-[3-(4-trifluoromethoxyphenyl)-ureido]phenyl}-4,4,4-trifluorobutyric Acid]",> 100,–,1.32,–

# Second part, the molecule after the results:
IC50 [1] [µM],IDO1 inhibitory activity (in words) [2],IC50 [2] [µM],fold more potent than compound BMS-E30 (IDO1) ([2]; ratio of IDO1 enzyme IC50 values) [fold],Compound
> 100,lost all IDO1 inhibitory activity,> 100,–,"CC1CC(C)CN(c2ccc(C(CC(=O)O)C(F)(F)F)cc2NC(=O)Nc2cccc(C#N)c2)C1 (stereo not drawn) [i11, 3-[3-[3-(3-cyanophenyl)ureido]-4-(3,5-dimethylpiperidin-1-yl)-phenyl]-4,4,4-trifluorobutyric Acid]"
> 100,lost all IDO1 inhibitory activity,> 100,–,"Cc1cccc(NC(=O)Nc2cc(C(CC(=O)O)C(F)(F)F)ccc2N2CC(C)CC(C)C2)c1 (stereo not drawn) [i7, 3-[4-(3,5-dimethylpiperidin-1-yl)-3-(3-m-tolylureido)phenyl]-4,4,4-trifluorobutyric Acid]"
> 100,–,5.48,–,"CC1CC(C)CN(c2ccc(C(CC(=O)O)C(F)(F)F)cc2NC(=O)Nc2ccc(F)cc2)C1 (stereo not drawn) [i18, 3-{4-(3,5-dimethylpiperidin-1-yl)-3-[3-(4-fluorophenyl)ureido]-phenyl}-4,4,4-trifluorobutyric Acid]"
> 100,lost all IDO1 inhibitory activity,> 100,–,"CC1CC(C)CN(c2ccc(C(CC(=O)O)C(F)(F)F)cc2NC(=O)Nc2ccccc2C#N)C1 (stereo not drawn) [i10, 3-[3-[3-(2-cyanophenyl)ureido]-4-(3,5-dimethylpiperidin-1-yl)-phenyl]-4,4,4-trifluorobutyric Acid]"
> 100,–,> 100,–,"CCOC(=O)CC(c1ccc(N2CC(C)CC(C)C2)c(NC(=O)Nc2ccccc2)c1)C(F)(F)F (stereo not drawn) [g1, 3-[4-(3,5-dimethylpiperidin-1-yl)-3-(3-phenylureido)-phenyl]-4,4,4-trifluorobutyric Acid Ethyl Ester]"
> 100,lost all IDO1 inhibitory activity,> 100,–,"COc1cccc(NC(=O)Nc2cc(C(CC(=O)O)C(F)(F)F)ccc2N2CC(C)CC(C)C2)c1 (stereo not drawn) [i14, 3-{4-(3,5-dimethylpiperidin-1-yl)-3-[3-(3-methoxyphenyl)ureido]-phenyl}-4,4,4-trifluorobutyric Acid]"
